Assays:
[1] = human, in vivo; cited from earlier work
[2] = mouse, in vivo, iv
[3] = Phase 2 clinical study of liposomal trans-crocetin, pharmacokinetics; conditions: human, in vivo
Source text: A phase 2 clinical study was initiated to assess the safety and efficacy of liposomal trans-crocetin in patients with acute respiratory distress syndrome due to COVID-19 disease. This was an open label phase II study of treatment with liposomal trans-crocetin in patients who experience severe acute respiratory distress syndrome (ARDS) and were receiving artificial respiratory support due to COVID-19. The purpose of this study was to evaluate the improvement in PaO2/FiO2 by more than 25% in two cohorts of patients treated liposomal trans-crocetin. In the first cohort, patients received trans-crocetin at a dose of 0.25 mg/kg administered as intravenous (IV) bolus every 3 hours. The second cohort was treated by a liposomal formulation containing trans-crocetin. […] Pharmacokinetic assessment was carried out to identify an optimal dose and schedule. […] Secondary outcome measures included (1) proportion of patients with a PaO2/FiO2 ratio above 200 mm Hg (Time Frame: 24, 48 and 72 hours), and (2) all cause mortality (Time Frame: 28 days).
The primary purpose of this study was to determine a safe dosing regimen of liposomal trans-crocetin and to assess preliminary efficacy as measured by improvement in PaO2/FiO2 by more than 25% in patients treated with liposome encapsulated trans-crocetin, as well as safety and the pharmacokinetic profile of liposome encapsulated trans-crocetin. […]

[4] = diffusion of oxygen in plasma, FIG. 12; cited from earlier work

SMILES | safety in clinical trials [1] | Cmax [2] [µg/mL] | AUC and Cmax across a wide range of body weights [3] | improvement in diffusion capacity [4] [%]
CC(/C=C/C=C(\C)C(=O)[O-])=C\C=C\C=C(C)\C=C\C=C(/C)C(=O)[O-].[Na+].[Na+] [STC free drug, sodium trans-crocetinate] | no safety concerns | 360 | – | –
CC(/C=C/C=C(\C)C(=O)O)=C\C=C\C=C(C)\C=C\C=C(/C)C(=O)O [trans-crocetin] | – | – | stable levels | 30

Source: patent US20230277494A1, “TRANS-CROCETIN COMPOSITIONS AND TREATMENT REGIMENS” (priority 2020, published 2023)
